Results as given in ChEMBL document CHEMBL4049398, “Microscale High-Throughput Experimentation as an Enabling Technology in Drug Discovery: Application in the Discovery of (Piperidinyl)pyridinyl-1H-benzimidazole Diacylglycerol Acyltransferase 1 Inhibitors” (J Med Chem, 2017).
Values after ≈ are worked out from the molar mass of the structure shown.

What was measured:
[1] = target: T1, Diacylglycerol O-acyltransferase 1 (Homo sapiens, UniProt O75907); experiment: Inhibition of human DGAT1 expressed in yeast membrane fraction assessed as inhibition of triglyceride formation using diolein/oleoyl-CoA as substrate measured after 1 hr by 7-diethylamino-3-(4'-maleimidylphenyl)-4-methylcoumarin based fluorescence analysis; assay type: cell membranes
T1 sequence (O75907 whole entry): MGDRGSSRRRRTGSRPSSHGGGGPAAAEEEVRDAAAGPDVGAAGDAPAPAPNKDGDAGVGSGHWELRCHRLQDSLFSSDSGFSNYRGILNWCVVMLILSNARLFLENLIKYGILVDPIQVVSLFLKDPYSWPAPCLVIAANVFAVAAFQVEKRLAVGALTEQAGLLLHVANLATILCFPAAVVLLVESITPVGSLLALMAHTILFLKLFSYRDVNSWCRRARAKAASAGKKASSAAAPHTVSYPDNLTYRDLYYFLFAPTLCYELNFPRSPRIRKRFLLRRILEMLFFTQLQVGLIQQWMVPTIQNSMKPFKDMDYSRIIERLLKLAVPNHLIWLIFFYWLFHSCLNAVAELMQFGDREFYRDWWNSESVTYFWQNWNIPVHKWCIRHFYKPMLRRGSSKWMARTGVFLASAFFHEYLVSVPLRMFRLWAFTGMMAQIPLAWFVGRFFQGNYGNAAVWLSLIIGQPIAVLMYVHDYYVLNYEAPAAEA

[2] = Solubility of the compound at pH 7; assay type: physicochemical; settings: buffer
Mus musculus [3] = experiment: Reduction in triglyceride level in mouse plasma at 10 mg/kg,po after 18 hrs by lipid tolerance test; assay type: functional
[4] = target: T2, Nuclear receptor subfamily 1 group I member 2 (Homo sapiens, UniProt O75469); experiment: Inhibition of PXR (unknown origin); assay type: ADME
T2 sequence (O75469 whole entry): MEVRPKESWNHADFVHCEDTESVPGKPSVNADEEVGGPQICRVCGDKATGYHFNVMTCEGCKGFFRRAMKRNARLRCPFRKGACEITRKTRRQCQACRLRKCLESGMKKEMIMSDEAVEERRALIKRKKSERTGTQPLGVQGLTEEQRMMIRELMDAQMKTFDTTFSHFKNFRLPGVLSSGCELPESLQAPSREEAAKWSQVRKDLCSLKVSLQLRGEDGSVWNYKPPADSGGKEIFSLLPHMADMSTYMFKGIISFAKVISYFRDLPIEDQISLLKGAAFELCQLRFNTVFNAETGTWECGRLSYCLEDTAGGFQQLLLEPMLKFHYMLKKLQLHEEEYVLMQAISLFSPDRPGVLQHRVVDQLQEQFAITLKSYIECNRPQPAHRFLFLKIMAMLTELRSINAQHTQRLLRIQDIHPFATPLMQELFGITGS

[5] = Solubility of the compound at pH 2; assay type: physicochemical; settings: buffer
Cytochrome P450 2C9 = Cytochrome P450 2C9 (Homo sapiens, UniProt P11712); experiment: Inhibition of CYP2C9 (unknown origin); assay type: ADME
Cytochrome P450 2C9, sequence (P11712 whole entry): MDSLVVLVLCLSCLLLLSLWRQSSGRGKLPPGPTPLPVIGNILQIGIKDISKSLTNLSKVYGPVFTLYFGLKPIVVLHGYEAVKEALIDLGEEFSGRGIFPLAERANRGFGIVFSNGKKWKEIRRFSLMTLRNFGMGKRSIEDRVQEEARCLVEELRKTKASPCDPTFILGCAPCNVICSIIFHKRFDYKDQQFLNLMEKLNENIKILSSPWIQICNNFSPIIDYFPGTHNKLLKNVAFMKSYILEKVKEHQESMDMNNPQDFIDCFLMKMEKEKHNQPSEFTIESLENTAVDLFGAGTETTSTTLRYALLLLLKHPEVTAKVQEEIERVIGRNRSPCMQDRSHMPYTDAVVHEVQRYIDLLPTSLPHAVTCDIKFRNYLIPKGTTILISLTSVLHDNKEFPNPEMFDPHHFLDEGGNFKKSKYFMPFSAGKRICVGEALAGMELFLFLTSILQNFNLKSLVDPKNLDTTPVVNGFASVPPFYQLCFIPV

Cytochrome P450 3A4 = Cytochrome P450 3A4 (Homo sapiens, UniProt P08684); experiment: Inhibition of CYP3A4 (unknown origin); assay type: ADME
Cytochrome P450 3A4, sequence (P08684 whole entry): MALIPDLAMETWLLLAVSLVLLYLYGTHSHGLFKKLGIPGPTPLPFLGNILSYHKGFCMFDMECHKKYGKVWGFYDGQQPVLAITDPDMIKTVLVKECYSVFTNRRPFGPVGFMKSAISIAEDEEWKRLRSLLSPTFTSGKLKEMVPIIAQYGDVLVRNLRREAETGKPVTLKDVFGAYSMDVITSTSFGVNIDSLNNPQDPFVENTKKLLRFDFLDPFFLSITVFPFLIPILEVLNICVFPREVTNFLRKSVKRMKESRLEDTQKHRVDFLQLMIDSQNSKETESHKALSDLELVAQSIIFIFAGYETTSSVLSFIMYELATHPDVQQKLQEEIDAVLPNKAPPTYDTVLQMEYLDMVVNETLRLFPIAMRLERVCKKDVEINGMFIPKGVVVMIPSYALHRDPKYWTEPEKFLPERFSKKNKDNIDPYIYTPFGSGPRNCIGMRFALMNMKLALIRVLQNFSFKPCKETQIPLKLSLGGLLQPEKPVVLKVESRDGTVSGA

Mus musculus [6] = experiment: Reduction in triglyceride level in mouse plasma at 30 mg/kg, po after 18 hrs by lipid tolerance test; assay type: functional
[7] = Lipophilicity, log D of the compound; assay type: physicochemical; settings: octanol/water
[8] = target: Voltage-gated inwardly rectifying potassium channel KCNH2 (Homo sapiens, UniProt Q12809); experiment: Inhibition of MK499 binding to human ERG
Voltage-gated inwardly rectifying potassium channel KCNH2, sequence (Q12809 whole entry): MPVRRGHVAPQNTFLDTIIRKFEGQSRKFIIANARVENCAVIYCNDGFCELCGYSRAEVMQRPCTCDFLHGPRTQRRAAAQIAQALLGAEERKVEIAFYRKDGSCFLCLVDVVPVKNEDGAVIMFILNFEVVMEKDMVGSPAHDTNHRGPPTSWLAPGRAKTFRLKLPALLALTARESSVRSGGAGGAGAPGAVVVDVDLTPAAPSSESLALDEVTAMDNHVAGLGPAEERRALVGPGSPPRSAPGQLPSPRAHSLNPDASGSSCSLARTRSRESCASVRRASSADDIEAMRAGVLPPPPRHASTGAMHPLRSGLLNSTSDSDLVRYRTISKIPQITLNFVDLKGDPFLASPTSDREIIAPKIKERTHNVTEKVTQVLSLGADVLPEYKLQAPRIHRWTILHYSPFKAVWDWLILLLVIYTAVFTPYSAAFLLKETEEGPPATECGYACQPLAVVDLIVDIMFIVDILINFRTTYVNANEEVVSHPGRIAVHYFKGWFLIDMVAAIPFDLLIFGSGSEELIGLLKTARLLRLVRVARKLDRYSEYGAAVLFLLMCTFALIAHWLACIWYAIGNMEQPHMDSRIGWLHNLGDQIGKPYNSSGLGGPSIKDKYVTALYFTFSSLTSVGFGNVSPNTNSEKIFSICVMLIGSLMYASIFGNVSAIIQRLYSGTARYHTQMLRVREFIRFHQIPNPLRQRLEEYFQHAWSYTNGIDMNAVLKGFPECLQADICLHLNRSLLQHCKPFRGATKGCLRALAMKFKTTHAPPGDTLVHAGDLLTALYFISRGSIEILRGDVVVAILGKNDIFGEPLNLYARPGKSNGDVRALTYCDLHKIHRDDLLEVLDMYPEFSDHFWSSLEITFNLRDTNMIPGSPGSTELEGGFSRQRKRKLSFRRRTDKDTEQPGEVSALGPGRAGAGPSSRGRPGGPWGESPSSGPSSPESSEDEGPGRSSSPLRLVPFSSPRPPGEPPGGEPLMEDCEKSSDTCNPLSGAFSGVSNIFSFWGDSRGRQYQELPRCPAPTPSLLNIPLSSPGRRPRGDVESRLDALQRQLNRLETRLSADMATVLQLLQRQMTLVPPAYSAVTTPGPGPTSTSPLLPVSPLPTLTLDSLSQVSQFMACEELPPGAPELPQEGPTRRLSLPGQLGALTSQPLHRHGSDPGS

Rattus norvegicus = experiment: Intrinsic clearance Wistar Han rat at 1 mg/kg, iv; assay type: ADME, organism-based; settings: in vivo

Row | SMILES | IC50 [1] [nM] | solubility ([2]; read-out: solubility) [µM] | IC50 [4] [µM] | solubility ([5]; read-out: solubility) [µM] | IC50 (Cytochrome P450 2C9) [µM] | IC50 (Cytochrome P450 3A4) [µM] | logD ([7]; read-out: logD) | IC50 [8] [µM] | other results
1 | O=C1OC2(CCN(c3ccc(-c4nc5cc(Cl)ccc5[nH]4)cn3)CC2)c2cnccc21 | 66 | – | – | – | – | – | – | – | –
2 | FC(F)(F)c1ccc2[nH]c(-c3ccc(N4CCC(c5ccccc5)(c5ccccc5)CC4)nc3)nc2c1 | 1640 | – | – | – | – | – | – | – | –
3 | O=C(O)C[C@@H]1COC2(CCN(c3ccc(-c4nc5cc(C(F)(F)F)ccc5[nH]4)cn3)CC2)C1 | – | 158 (≈ 72.8 µg/mL) | > 30 | 171 (≈ 78.7 µg/mL) | > 50 | > 50 | 1.44 | – | inhibition in vivo at 10 mg/kg (Mus musculus [3]): 32%; inhibition in vivo at 30 mg/kg (Mus musculus [6]): 54%
4 | O=C(O)C1CCC2(CCN(c3ccc(-c4nc5cc(C(F)(F)F)ccc5[nH]4)cn3)CC2)CO1 (centres undefined) | 364 | 154 (≈ 70.9 µg/mL) | – | 167 (≈ 76.9 µg/mL) | – | – | 1.54 | – | –
5 | Clc1ccc2[nH]c(-c3ccc(N4C[C@@H]5C[C@H]4CN5c4ccccc4)nc3)nc2c1 | > 10000 | – | – | – | – | – | – | – | –
6 | O=C(O)C1CCC2(CCN(c3ccc(-c4nc5cc(C(F)(F)F)ccc5[nH]4)cn3)CC2)OC1 (centres undefined) | – | 163 (≈ 75.1 µg/mL) | > 30 | 174 (≈ 80.1 µg/mL) | > 50 | > 50 | 1.52 | 14.7 | –
7 | FC(F)(F)c1ccc2[nH]c(-c3ccc(N4CCC(c5ccccn5)CC4)nc3)nc2c1 | 62 | – | – | – | – | – | – | – | –
8 | FC(F)(F)c1ccc2[nH]c(-c3ccc(N4CCC5(CC4)OC(Cc4cc(Cl)cc(Cl)c4)c4ccccc45)nc3)nc2c1 (centres undefined) | 8700 | – | – | – | – | – | – | – | –
9 | O=C(O)C[C@H]1COC2(CCN(c3ccc(-c4nc5cc(C(F)(F)F)ccc5[nH]4)cn3)CC2)C1 | – | 153 (≈ 70.4 µg/mL) | > 30 | 170 (≈ 78.3 µg/mL) | > 50 | > 50 | 1.45 | – | –
10 | O=C1OC2(CCN(c3ccc(-c4nc5cc(Cl)ccc5[nH]4)cn3)CC2)c2ncccc21 | 10 | – | – | < 10 | 3.4 | – | – | – | –
11 | N#Cc1ccc(N2C(=O)NC3(CCN(c4ccc(-c5nc6cc(C(F)(F)F)ccc6[nH]5)cn4)CC3)C2=O)cc1 | 377 | – | – | – | – | – | – | – | –
12 | O=C1OC2(CCN(c3ccc(-c4nc5cc(Cl)ccc5[nH]4)cn3)CC2)c2ccccc21 | 52 | – | – | – | – | – | – | – | –
13 | O=C(O)c1ccc2c(c1)C(=O)OC21CCN(c2ccc(-c3nc4cc(C(F)(F)F)ccc4[nH]3)cn2)CC1 | – | – | – | < 10 | – | – | – | 0.56 | –
14 | Cc1cccc(Cl)c1NC(=O)N1CCN(c2ccc(-c3nc4cc(C(F)(F)F)ccc4[nH]3)cn2)CC1 | 89 | – | – | – | – | – | – | – | –
15 | O=S1(=O)CCC(N2CCN(c3ccc(-c4nc5cc(C(F)(F)F)ccc5[nH]4)cn3)CC2)C1 (centres undefined) | 131 | – | – | – | – | – | – | – | –
16 | CS(=O)(=O)C1CCN(c2ccc(-c3nc4cc(C(F)(F)F)ccc4[nH]3)cn2)CC1 | 216 | – | – | – | – | – | – | – | –
17 | Clc1ccc2[nH]c(-c3ccc(N4CCC5(CC4)OCc4ccccc45)nc3)nc2c1 | 137 | – | – | – | – | – | – | – | –
18 | O=C(O)CC1CCC2(CC1)CCN(c1ccc(-c3nc4cc(C(F)(F)F)ccc4[nH]3)cn1)CC2 | 6 | 45 (≈ 21.3 µg/mL) | > 30 | < 4 | 10.8 | 6.4 | 1.76 | – | –
19 | O=C1OC2(CCN(c3ccc(-c4nc5cc(C(F)(F)F)ccc5[nH]4)cn3)CC2)CN1c1ccccc1 | 1410 | – | – | – | – | – | – | – | –
20 | O=C(O)CN1CCC2(CC1)CCN(c1ccc(-c3nc4cc(C(F)(F)F)ccc4[nH]3)cn1)CC2 | > 10000 | 168 (≈ 79.5 µg/mL) | > 30 | 207 (≈ 98 µg/mL) | > 50 | > 50 | 1.38 | 4.8 | –
21 | O=C(O)CC1CCC2(CCN(c3ccc(-c4nc5cc(C(F)(F)F)ccc5[nH]4)cn3)CC2)OC1 (racemic) | – | 172 (≈ 81.6 µg/mL) | > 30 | 179 (≈ 84.9 µg/mL) | > 50 | > 50 | 1.52 | 7.8 | –
22 | O=C(O)CC1CCOC2(CCN(c3ccc(-c4nc5cc(C(F)(F)F)ccc5[nH]4)cn3)CC2)C1 (racemic) | – | 184 (≈ 87.3 µg/mL) | > 30 | 185 (≈ 87.8 µg/mL) | > 50 | > 50 | 1.43 | – | –
23 | O=C(O)CC1CCC2(CCN(c3ccc(-c4nc5cc(C(F)(F)F)ccc5[nH]4)cn3)CC2)O1 (racemic) | – | 149 (≈ 68.6 µg/mL) | > 30 | 170 (≈ 78.3 µg/mL) | > 50 | > 50 | 1.55 | > 60 | CL (Rattus norvegicus): 34.2 mL/min/kg
24 | O=C(O)CC1CCC2(CCN(c3ccc(-c4nc5cc(C(F)(F)F)ccc5[nH]4)cn3)CC2)OC1 (single isomer, unassigned; ent B) | – | – | > 30 | – | 25.6 | 13.3 | – | 1.2 | –
25 | O=C(O)CC1CCC2(CCN(c3ccc(-c4nc5cc(C(F)(F)F)ccc5[nH]4)cn3)CC2)O1 (single isomer, unassigned; form 1) | – | – | – | – | – | – | – | 16 | solubility [2]: 190 µM (≈ 87.5 µg/mL); solubility [5]: > 200 µM; logD [7]: 1.52
26 | O=C(O)CC1CCC2(CCN(c3ccc(-c4nc5cc(C(F)(F)F)ccc5[nH]4)cn3)CC2)O1 (single isomer, unassigned; form 2) | – | – | > 30 | – | 39.5 | > 50 | – | 17.4 | solubility [2]: 147 µM (≈ 67.7 µg/mL); solubility [5]: 163 µM (≈ 75.1 µg/mL); logD [7]: 1.58
27 | O=C(O)CC1CCC2(CCN(c3ccc(-c4nc5cc(C(F)(F)F)ccc5[nH]4)cn3)CC2)OC1 (stereo in doubt) | – | – | > 30 | – | 20.4 | 19.5 | – | 0.8 | –
28 | O=C(O)CC1CCOC2(CCN(c3ccc(-c4nc5cc(C(F)(F)F)ccc5[nH]4)cn3)CC2)C1 (stereo in doubt; form 1) | – | – | > 30 | – | 45.2 | > 50 | – | – | solubility [2]: 168 µM (≈ 79.7 µg/mL); solubility [5]: 173 µM (≈ 82.1 µg/mL); logD [7]: 1.48
29 | O=C(O)CC1CCOC2(CCN(c3ccc(-c4nc5cc(C(F)(F)F)ccc5[nH]4)cn3)CC2)C1 (stereo in doubt; form 2) | – | – | > 30 | – | 35.1 | > 50 | – | – | solubility [2]: 174 µM (≈ 82.6 µg/mL); solubility [5]: 169 µM (≈ 80.2 µg/mL); logD [7]: 1.47
